According to PubChem BioAssay (NCI):
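A five-concentration, 48-hour dose response in 96-well plates underlies each endpoint, interpolated linearly between surrounding concentrations. GI50 marks 50% less growth. TGI denotes the concentration required for complete inhibition of growth.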

Tests used:
Experiment in all cases: NCI tumour cell line growth inhibition, 48 h
786-0 renal = test system: 786-0 renal
A498 renal = test system: A498 renal
A549 NSCLC = test system: A549 NSCLC
ACHN renal = test system: ACHN renal
BT-549 breast = test system: BT-549 breast
CAKI-1 renal = test system: CAKI-1 renal
CCRF-CEM leukemia = test system: CCRF-CEM leukemia
COLO 205 colon = test system: COLO 205 colon
DU-145 prostate = test system: DU-145 prostate
EKVX NSCLC = test system: EKVX NSCLC
HCC-2998 colon = test system: HCC-2998 colon
HCT-116 colon = test system: HCT-116 colon
HCT-15 colon = test system: HCT-15 colon
HL-60(TB) leukemia = test system: HL-60(TB) leukemia
HOP-62 NSCLC = test system: HOP-62 NSCLC
HOP-92 NSCLC = test system: HOP-92 NSCLC
HS 578T breast = test system: HS 578T breast
HT29 colon = test system: HT29 colon
IGROV1 ovarian = test system: IGROV1 ovarian
K-562 leukemia = test system: K-562 leukemia
KM12 colon = test system: KM12 colon
LOX IMVI melanoma = test system: LOX IMVI melanoma
M14 melanoma = test system: M14 melanoma
MALME-3M melanoma = test system: MALME-3M melanoma
MCF7 breast = test system: MCF7 breast
MDA-MB-231 breast = test system: MDA-MB-231 breast
MDA-MB-435 = test system: MDA-MB-435
MOLT-4 leukemia = test system: MOLT-4 leukemia
NCI-H226 lung = test system: NCI-H226 lung
NCI-H23 lung = test system: NCI-H23 lung
NCI-H460 lung = test system: NCI-H460 lung
NCI-H522 lung = test system: NCI-H522 lung
NCI/ADR-RES ovarian = test system: NCI/ADR-RES ovarian
OVCAR-3 ovarian = test system: OVCAR-3 ovarian
OVCAR-4 ovarian = test system: OVCAR-4 ovarian
OVCAR-5 ovarian = test system: OVCAR-5 ovarian
OVCAR-8 ovarian = test system: OVCAR-8 ovarian
PC-3 prostate = test system: PC-3 prostate
RPMI-8226 leukemia = test system: RPMI-8226 leukemia
RXF 393 renal = test system: RXF 393 renal
SF-268 CNS = test system: SF-268 CNS
SF-295 CNS = test system: SF-295 CNS
SF-539 CNS = test system: SF-539 CNS
SK-MEL-2 melanoma = test system: SK-MEL-2 melanoma
SK-MEL-28 melanoma = test system: SK-MEL-28 melanoma
SK-MEL-5 melanoma = test system: SK-MEL-5 melanoma
SK-OV-3 ovarian = test system: SK-OV-3 ovarian
SN12C renal = test system: SN12C renal
SNB-19 CNS = test system: SNB-19 CNS
SNB-75 CNS = test system: SNB-75 CNS
SR leukemia = test system: SR leukemia
SW-620 colon = test system: SW-620 colon
T-47D breast = test system: T-47D breast
TK-10 renal = test system: TK-10 renal
U251 CNS = test system: U251 CNS
UACC-257 melanoma = test system: UACC-257 melanoma
UACC-62 melanoma = test system: UACC-62 melanoma
UO-31 renal = test system: UO-31 renal

CN1CCN(Cc2ccc(NC(=O)c3nc4ccc5[nH]ncc5c4c4c3CCCC4)cc2C(F)(F)F)CC1 showed a GI50 (786-0 renal) of 895 nM, a TGI (786-0 renal) of 1730 nM and a GI50 (A498 renal) of 977 nM. The TGI (A498 renal) was 2320 nM, the GI50 (A549 NSCLC) was 890 nM and the TGI (A549 NSCLC) was 1790 nM. For the same compound, the GI50 (ACHN renal) was 862 nM, the TGI (ACHN renal) was 1550 nM and the GI50 (BT-549 breast) was 2130 nM. The TGI (BT-549 breast) was 4240 nM, the GI50 (CAKI-1 renal) was 816 nM and the TGI (CAKI-1 renal) was 1530 nM. It also gave a GI50 (CCRF-CEM leukemia) of 1120 nM, a TGI (CCRF-CEM leukemia) of 2990 nM and a GI50 (COLO 205 colon) of 880 nM. For the same compound, the TGI (COLO 205 colon) was 1730 nM, the GI50 (DU-145 prostate) was 902 nM and the TGI (DU-145 prostate) was 1630 nM. The GI50 (EKVX NSCLC) was 802 nM, the TGI (EKVX NSCLC) was 1530 nM and the GI50 (HCC-2998 colon) was 867 nM. The TGI (HCC-2998 colon) was 1630 nM, the GI50 (HCT-116 colon) was 855 nM and the TGI (HCT-116 colon) was 1710 nM. The GI50 (HCT-15 colon) was 792 nM, the TGI (HCT-15 colon) was 1520 nM and the GI50 (HL-60(TB) leukemia) was 943 nM. The TGI (HL-60(TB) leukemia) was 2020 nM, the GI50 (HOP-62 NSCLC) was 967 nM and the TGI (HOP-62 NSCLC) was 1920 nM. The GI50 (HOP-92 NSCLC) was 653 nM, the TGI (HOP-92 NSCLC) was 1350 nM and the GI50 (HS 578T breast) was 922 nM. For the same compound, the TGI (HS 578T breast) was 1970 nM, the GI50 (HT29 colon) was 894 nM and the TGI (HT29 colon) was 1810 nM. The GI50 (IGROV1 ovarian) was 883 nM, the TGI (IGROV1 ovarian) was 1670 nM and the GI50 (K-562 leukemia) was 701 nM. For the same compound, the TGI (K-562 leukemia) was 1960 nM, the GI50 (KM12 colon) was 860 nM and the TGI (KM12 colon) was 1610 nM. The GI50 (LOX IMVI melanoma) was 846 nM, the TGI (LOX IMVI melanoma) was 1550 nM and the GI50 (M14 melanoma) was 902 nM. For the same compound, the TGI (M14 melanoma) was 1770 nM, the GI50 (MALME-3M melanoma) was 764 nM and the TGI (MALME-3M melanoma) was 1530 nM. The GI50 (MCF7 breast) was 848 nM, the TGI (MCF7 breast) was 1690 nM and the GI50 (MDA-MB-231 breast) was 880 nM. The TGI (MDA-MB-231 breast) was 1650 nM, the GI50 (MDA-MB-435) was 841 nM and the TGI (MDA-MB-435) was 1560 nM. It also gave a GI50 (MOLT-4 leukemia) of 995 nM, a TGI (MOLT-4 leukemia) of 2390 nM and a GI50 (NCI-H226 lung) of 862 nM. The TGI (NCI-H226 lung) was 1770 nM, the GI50 (NCI-H23 lung) was 901 nM and the TGI (NCI-H23 lung) was 1740 nM. The GI50 (NCI-H460 lung) was 906 nM, the TGI (NCI-H460 lung) was 1740 nM and the GI50 (NCI-H522 lung) was 922 nM. The TGI (NCI-H522 lung) was 1860 nM, the GI50 (NCI/ADR-RES ovarian) was 847 nM and the TGI (NCI/ADR-RES ovarian) was 1580 nM. It also gave a GI50 (OVCAR-3 ovarian) of 868 nM, a TGI (OVCAR-3 ovarian) of 1600 nM and a GI50 (OVCAR-4 ovarian) of 861 nM. The TGI (OVCAR-4 ovarian) was 1670 nM, the GI50 (OVCAR-5 ovarian) was 843 nM and the TGI (OVCAR-5 ovarian) was 1580 nM. It also gave a GI50 (OVCAR-8 ovarian) of 998 nM, a TGI (OVCAR-8 ovarian) of 2080 nM and a GI50 (PC-3 prostate) of 866 nM. For the same compound, the TGI (PC-3 prostate) was 1660 nM, the GI50 (RPMI-8226 leukemia) was 1110 nM and the TGI (RPMI-8226 leukemia) was 2690 nM. It also gave a GI50 (RXF 393 renal) of 806 nM, a TGI (RXF 393 renal) of 1530 nM and a GI50 (SF-268 CNS) of 865 nM. It also gave a TGI (SF-268 CNS) of 1700 nM, a GI50 (SF-295 CNS) of 879 nM and a TGI (SF-295 CNS) of 1650 nM. The GI50 (SF-539 CNS) was 831 nM, the TGI (SF-539 CNS) was 1540 nM and the GI50 (SK-MEL-2 melanoma) was 1030 nM. The TGI (SK-MEL-2 melanoma) was 2200 nM, the GI50 (SK-MEL-28 melanoma) was 862 nM and the TGI (SK-MEL-28 melanoma) was 1580 nM. It also gave a GI50 (SK-MEL-5 melanoma) of 852 nM, a TGI (SK-MEL-5 melanoma) of 1540 nM and a GI50 (SK-OV-3 ovarian) of 7080 nM. The TGI (SK-OV-3 ovarian) was 14000 nM, the GI50 (SN12C renal) was 877 nM and the TGI (SN12C renal) was 1650 nM. It also gave a GI50 (SNB-19 CNS) of 868 nM, a TGI (SNB-19 CNS) of 1620 nM and a GI50 (SNB-75 CNS) of 770 nM. For the same compound, the TGI (SNB-75 CNS) was 1490 nM, the GI50 (SR leukemia) was 469 nM and the TGI (SR leukemia) was 3480 nM. For the same compound, the GI50 (SW-620 colon) was 892 nM, the TGI (SW-620 colon) was 1740 nM and the GI50 (T-47D breast) was 926 nM. The TGI (T-47D breast) was 2030 nM, the GI50 (TK-10 renal) was 846 nM and the TGI (TK-10 renal) was 1620 nM. For the same compound, the GI50 (U251 CNS) was 909 nM, the TGI (U251 CNS) was 1780 nM and the GI50 (UACC-257 melanoma) was 920 nM. For the same compound, the TGI (UACC-257 melanoma) was 1840 nM, the GI50 (UACC-62 melanoma) was 905 nM and the TGI (UACC-62 melanoma) was 1740 nM. The GI50 (UO-31 renal) was 785 nM and the TGI (UO-31 renal) was 1480 nM.
